Read-outs that look alike come from different tables or passages of the source. Bridge positions count the residues as written; N and C are the ends. Square brackets hold non-standard residues; d marks the D form. Peptide text beside a SMILES is read from it. Nle = CCCC[C@H](N)C(=O)O
Assays:
[1] = system: rat anterior pituitary cells; assay: In vitro stimulation of ACTH and β-endorphin secretion by cultured rat pituitary cells, potency compared with oCRF (Standard) or r/hCRF; assay type: cell-based; details: for in vitro biopotency, comparison in words: compared with the Standard or with a named analog
Description: The cyclic CRF agonists are examined for their effects on the secretion of ACTH and β-endorphin in vitro and also in vivo. […] In vivo testing is carried out using the general procedure set forth in C. Rivier et al., Science, 218, 377 (1982).

[2] = Lowering of blood pressure on peripheral or iv administration; assay type: in vivo; details: peripheral administration
[3] = relative to the laboratory Standard (synthetic oCRF), cultured rat pituitary cells, limits in parentheses

Row | Molecule | in vitro biopotency, comparison in words [1] | in vitro potency to stimulate secretion of ACTH relative to the Standard [1, 3] | further results
1 | CCCC[C@H](NC(=O)[C@H](CCCCN)NC(=O)[C@H](CCCNC(=N)N)NC(=O)[C@H](CC(C)C)NC(=O)[C@H](CC(C)C)NC(=O)[C@H](CCC(=O)O)NC(=O)[C@@H](CC(C)C)NC(=O)[C@H](CO)NC(=O)[C@H](CC(C)C)NC(=O)[C@H](CC(=O)O)NC(=O)[C@@H](NC(=O)[C@H](CO)NC(C)=O)[C@@H](C)CC)C(=O)N[C@H](C(=O)N[C@@H](CCC(=O)O)C(=O)N[C@H](C(=O)N[C@@H](CCC(=O)O)C(=O)N[C@@H](CCCCN)C(=O)N[C@@H](CCC(N)=O)C(=O)N[C@@H](CCC(=O)O)C(=O)N[C@@H](CCCCN)C(=O)N[C@@H](CCC(=O)O)C(=O)N[C@@H](CCCCN)C(=O)N[C@@H](CCC(N)=O)C(=O)N[C@H]1CCC(=O)NCCCC[C@@H](C(=O)N[C@@H](CC(N)=O)C(=O)N[C@@H](CCCNC(=N)N)C(=O)N[C@@H](CC(C)C)C(=O)N[C@@H](CC(C)C)C(=O)N[C@@H](CC(C)C)C(=O)N[C@@H](CC(=O)O)C(=O)N[C@H](C(=O)N[C@H](C(N)=O)[C@@H](C)CC)[C@@H](C)O)NC(=O)[C@@H](C)NC(=O)[C@H](C)NC1=O)[C@@H](C)CC)[C@@H](C)CC [Example 16 C D-Ala^31 analog] (Ac-SIDLS[dL]ELLRK[Nle]IEIEKQEKEKQEA[dA]KNRLLLDTI-NH2; lactam 24-27) | shows increased biopotency | – | –
2 | CC[C@H](C)[C@H](NC(=O)[C@@H]1CCCN1C(=O)[C@@H]1CCCN1C(C)=O)C(=O)N[C@@H](CO)C(=O)N[C@@H](CC(C)C)C(=O)N[C@@H](CC(=O)O)C(=O)N[C@@H](CC(C)C)C(=O)N[C@H](C(=O)N[C@H](Cc1ccccc1)C(=O)N[C@@H](Cc1c[nH]cn1)C(=O)N[C@@H](CC(C)C)C(=O)N[C@@H](CC(C)C)C(=O)N[C@@H](CCCNC(=N)N)C(=O)N[C@@H](CCC(=O)O)C(=O)N[C@@H](CCSC)C(=O)N[C@@H](CC(C)C)C(=O)N[C@@H](CCC(=O)O)C(=O)N[C@@H](CCSC)C(=O)N[C@@H](C)C(=O)N[C@@H](CCCCN)C(=O)N[C@@H](C)C(=O)N[C@@H](CCC(=O)O)C(=O)N[C@@H](CCC(N)=O)C(=O)N[C@@H](CCC(=O)O)C(=O)N[C@@H](C)C(=O)N[C@@H](CCC(=O)O)C(=O)N[C@H]1CCC(=O)NCCCC[C@@H](C(=O)N[C@@H](CC(N)=O)C(=O)N[C@@H](CCCNC(=N)N)C(=O)N[C@@H](CC(C)C)C(=O)N[C@@H](CC(C)C)C(=O)N[C@@H](CC(C)C)C(=O)N[C@@H](CCC(=O)O)C(=O)N[C@@H](CCC(=O)O)C(=O)N[C@@H](C)C(N)=O)NC(=O)[C@H](C)NC(=O)[C@H](C)NC1=O)[C@@H](C)O [(cyclo 30-33)[Ac-Pro^4, D-Phe^12, Glu^30, Lys^33]-AHC(4-41)] (Ac-PPISLDLT[dF]HLLREMLEMAKAEQEAEEAAKNRLLLEEA-NH2; lactam 27-30) | – | about 7.5 times | –
3 | (cyclo 29-32)[D-Leu^11, Nle^17, Glu^29, Lys^32 ]-sauvagine [Example 3 C] | – | about 5.73 (2.61-13.51) times | stimulation of secretion of ACTH and β-END-LI (testing by the general procedure), in words ([1]; general procedure of Example 1): stimulates the secretion of ACTH and β-END-LI; lowering of blood pressure when administered peripherally, in words [2]: very significant lowering of blood pressure
4 | CCCC[C@H](NC(=O)[C@H](CCC(=O)O)NC(=O)[C@H](CC(C)C)NC(=O)[C@H](CCCC)NC(=O)[C@H](CCC(=O)O)NC(=O)[C@H](CCCNC(=N)N)NC(=O)[C@H](CC(C)C)NC(=O)[C@H](CC(C)C)NC(=O)[C@H](Cc1c[nH]cn1)NC(=O)[C@@H](Cc1ccccc1)NC(=O)[C@@H](NC(=O)[C@H](CC(C)C)NC(=O)[C@H](CC(=O)O)NC(=O)[C@H](CC(C)C)NC(=O)[C@H](CO)NC(C)=O)[C@@H](C)O)C(=O)N[C@@H](C)C(=O)N[C@@H](CCCCN)C(=O)N[C@@H](C)C(=O)N[C@@H](CCC(=O)O)C(=O)N[C@@H](CCC(N)=O)C(=O)N[C@@H](CCC(=O)O)C(=O)N[C@@H](C)C(=O)N[C@@H](CCC(=O)O)C(=O)N[C@H]1CCC(=O)NCCCC[C@@H](C(=O)N[C@@H](CC(N)=O)C(=O)N[C@@H](CCCNC(=N)N)C(=O)N[C@@H](CC(C)C)C(=O)N[C@@H](CC(C)C)C(=O)N[C@@H](CC(C)C)C(=O)N[C@@H](CCC(=O)O)C(=O)N[C@@H](CCC(=O)O)C(=O)N[C@@H](C)C(N)=O)NC(=O)[C@H](C)NC(=O)[C@H](C)NC1=O [Example 16 A Ala^32 cyclic analog] (Ac-SLDLT[dF]HLLRE[Nle]LE[Nle]AKAEQEAEEAAKNRLLLEEA-NH2; lactam 24-27) | biopotency greater than the Standard peptide | – | –
5 | CCCC[C@H](NC(=O)[C@H](CCC(=O)O)NC(=O)[C@H](CC(C)C)NC(=O)[C@H](CCCC)NC(=O)[C@H](CCC(=O)O)NC(=O)[C@H](CCCNC(=N)N)NC(=O)[C@H](CC(C)C)NC(=O)[C@H](CC(C)C)NC(=O)[C@H](Cc1c[nH]cn1)NC(=O)[C@@H](Cc1ccccc1)NC(=O)[C@@H](NC(=O)[C@H](CC(C)C)NC(=O)[C@H](CC(=O)O)NC(=O)[C@H](CC(C)C)NC(=O)[C@H](CO)NC(C)=O)[C@@H](C)O)C(=O)N[C@@H](C)C(=O)N[C@@H](CCCCN)C(=O)N[C@@H](C)C(=O)N[C@@H](CCC(=O)O)C(=O)N[C@@H](CCC(N)=O)C(=O)N[C@@H](CCC(=O)O)C(=O)N[C@@H](C)C(=O)N[C@@H](CCC(=O)O)C(=O)N[C@H]1CCC(=O)NCCCC[C@@H](C(=O)N[C@@H](CC(N)=O)C(=O)N[C@@H](CCCNC(=N)N)C(=O)N[C@@H](CC(C)C)C(=O)N[C@@H](CC(C)C)C(=O)N[C@@H](CC(C)C)C(=O)N[C@@H](CCC(=O)O)C(=O)N[C@@H](CCC(=O)O)C(=O)N[C@@H](C)C(N)=O)NC(=O)[C@@H](Cc2c[nH]cn2)NC(=O)[C@H](C)NC1=O [Example 16 A D-His^32 cyclic analog] (Ac-SLDLT[dF]HLLRE[Nle]LE[Nle]AKAEQEAEEA[dH]KNRLLLEEA-NH2; lactam 24-27) | biopotency greater than the Standard peptide | – | –
6 | CCCC[C@H](NC(=O)[C@H](CCCCN)NC(=O)[C@H](CCCNC(=N)N)NC(=O)[C@H](CC(C)C)NC(=O)[C@H](CC(C)C)NC(=O)[C@H](CCC(=O)O)NC(=O)[C@@H](CC(C)C)NC(=O)[C@H](CO)NC(=O)[C@H](CC(C)C)NC(=O)[C@H](CC(=O)O)NC(=O)[C@@H](NC(=O)[C@H](CO)NC(=O)[C@@H](NC(=O)[C@H]1CCCN1C(=O)[C@@H]1CCCN1C(C)=O)[C@@H](C)CC)[C@@H](C)CC)C(=O)N[C@H](C(=O)N[C@@H](CCC(=O)O)C(=O)N[C@H](C(=O)N[C@@H](CCC(=O)O)C(=O)N[C@@H](CCCCN)C(=O)N[C@@H](CCC(N)=O)C(=O)N[C@@H](CCC(=O)O)C(=O)N[C@@H](CCCCN)C(=O)N[C@@H](CCC(=O)O)C(=O)N[C@@H](CCCCN)C(=O)N[C@@H](CCC(N)=O)C(=O)N[C@H]1CCC(=O)NCCCC[C@@H](C(=O)N[C@@H](CC(N)=O)C(=O)N[C@@H](CCCNC(=N)N)C(=O)N[C@@H](CC(C)C)C(=O)N[C@@H](CC(C)C)C(=O)N[C@@H](CC(C)C)C(=O)N[C@@H](CC(=O)O)C(=O)N[C@H](C(=O)N[C@H](C(N)=O)[C@@H](C)CC)[C@@H](C)O)NC(=O)[C@@H](C)NC(=O)[C@H](C)NC1=O)[C@@H](C)CC)[C@@H](C)CC [Example 8 B D-Ala^31 analog] (Ac-P[dP]ISIDLS[dL]ELLRK[Nle]IEIEKQEKEKQEA[dA]KNRLLLDTI-NH2; lactam 27-30) | – | about 2 times | –
7 | CCCC[C@H](NC(=O)[C@H](CCC(=O)O)NC(=O)[C@H](CC(C)C)NC(=O)[C@H](CCCC)NC(=O)[C@H](CCC(=O)O)NC(=O)[C@H](CCCNC(=N)N)NC(=O)[C@H](CC(C)C)NC(=O)[C@H](CC(C)C)NC(=O)[C@H](Cc1c[nH]cn1)NC(=O)[C@@H](Cc1ccccc1)NC(=O)[C@@H](NC(=O)[C@H](CC(C)C)NC(=O)[C@H](CC(=O)O)NC(=O)[C@H](CC(C)C)NC(=O)[C@H](CO)NC(=O)[C@@H](NC(=O)[C@H]1CCCN1C(=O)[C@@H]1CCCN1C(C)=O)[C@@H](C)CC)[C@@H](C)O)C(=O)N[C@@H](C)C(=O)N[C@@H](CCCCN)C(=O)N[C@@H](C)C(=O)N[C@@H](CCC(=O)O)C(=O)N[C@@H](CCC(N)=O)C(=O)N[C@@H](CCC(=O)O)C(=O)N[C@@H](C)C(=O)N[C@@H](CCC(=O)O)C(=O)N[C@H]1CCC(=O)NCCCC[C@@H](C(=O)N[C@@H](CC(N)=O)C(=O)N[C@@H](CCCNC(=N)N)C(=O)N[C@@H](CC(C)C)C(=O)N[C@@H](CC(C)C)C(=O)N[C@@H](CC(C)C)C(=O)N[C@@H](CCC(=O)O)C(=O)N[C@@H](CCC(=O)O)C(=O)N[C@@H](C)C(N)=O)NC(=O)[C@@H](C)NC(=O)[C@H](C)NC1=O [Example 8 C D-Ala^32 analog] (Ac-P[dP]ISLDLT[dF]HLLRE[Nle]LE[Nle]AKAEQEAEEA[dA]KNRLLLEEA-NH2; lactam 27-30) | – | – | in vitro potency to stimulate secretion of ACTH relative to the Standard [1]: about 6.35 times
8 | CCCC[C@H](NC(=O)[C@H](CCC(=O)O)NC(=O)[C@@H](NC(=O)[C@H](CCCC)NC(=O)[C@H](CC(N)=O)NC(=O)[C@H](CCCNC(=N)N)NC(=O)[C@H](CC(C)C)NC(=O)[C@H](CC(C)C)NC(=O)[C@H](Cc1c[nH]cn1)NC(=O)[C@@H](Cc1ccccc1)NC(=O)[C@@H](NC(=O)[C@H](CC(C)C)NC(=O)[C@H](CC(=O)O)NC(=O)[C@@H](NC(=O)[C@H](CO)NC(=O)[C@@H](NC(=O)[C@H]1CCCN1C(=O)[C@@H]1CCCN1C(C)=O)[C@@H](C)CC)[C@@H](C)CC)[C@@H](C)O)[C@@H](C)CC)C(=O)N[C@@H](C)C(=O)N[C@@H](CCCNC(=N)N)C(=O)N[C@@H](CC(N)=O)C(=O)N[C@@H](CCC(=O)O)C(=O)N[C@@H](CC(N)=O)C(=O)N[C@@H](CCC(N)=O)C(=O)N[C@@H](CCCNC(=N)N)C(=O)N[C@@H](CCC(=O)O)C(=O)N[C@H]1CCC(=O)NCCCC[C@@H](C(=O)N[C@@H](CC(N)=O)C(=O)N[C@@H](CCCNC(=N)N)C(=O)N[C@@H](CCCCN)C(=O)N[C@@H](Cc2ccc(O)cc2)C(=O)N[C@@H](CC(C)C)C(=O)N[C@@H](CC(=O)O)C(=O)N[C@@H](CCC(=O)O)C(=O)N[C@H](C(N)=O)C(C)C)NC(=O)[C@@H](C)NC(=O)[C@H](C)NC1=O [Example 8 A D-Ala^32 analog] (Ac-P[dP]ISIDLT[dF]HLLRN[Nle]IE[Nle]ARNENQREEA[dA]KNRKYLDEV-NH2; lactam 27-30) | – | – | in vitro potency to stimulate secretion of ACTH relative to the Standard [1]: about 4.9 times
